{"source": "patent US20190231783A1", "about": "“PHARMACEUTICAL FORMULATIONS” (Corvus Pharmaceuticals, Inc., priority 2018, published 2019)", "key": {"[1]": {"experiment": "Solubility / kinetic solubility in pH 6.8 phosphate buffer", "assay_type": "physicochemical", "settings": "37 °C, thermodynamic from solid", "experimental": "Kinetic solubility is a supersaturated or metastable and time-dependent state as opposed to true time-independent equilibrium solubility. […] The bottle was rotated at 50 rpm up to 4 hours at 37° C. Samples were collected at 5, 10, 15, 20, 25, 30, 45, 60, 75, 90, 120, 180, and 240 minutes time points. The samples were filtered using […] PVDF filter and diluted with acetonitrile in 1:1 ratio immediately. The samples were analyzed by HPLC. The concentration of phosphate buffer had only a minor effect on the solubility of the DS or the amorphous solid dispersion (extrudate), and the surfactant made it more difficult to distinguish the enhancement of the solubility.\nSolubility Studies. […] Amorphous solid dispersions with 30% drug loading of Formula III with three different stabilizing polymers were evaluated. In particular, excess sample (either Formula (III) milled extrudate or Formula (III) as a control) was added into the bottle containing 120 mL of each media to ensure saturation.\nAt the same time, SLS diminished the discrimination between the crystalline and amorphous forms. Thus it is advisable to avoid SLS in the dissolution media for kinetic solubility studies."}, "[2]": {"experiment": "Particle size distribution by laser diffraction (nanomilled suspensions, cast films, layered beads)", "assay_type": "physicochemical", "settings": "crystalline drug particles used to prepare Nanosuspension #001-35 (Table 13A)", "procedure": "“Particle size distribution” or “PSD” or “size distribution” refers to the size of particles present in their relative proportions in a sample, as measured by laser diffraction spectroscopy. In aspects, the particle size distribution refers to the particle size distribution of all the drug particles in the composition. The particle size distribution of a sample is measured by laser diffraction spectroscopy. Laser diffraction spectrometers are commercially available as, e.g., MASTERSIZER® 3000 from Malvern Instruments Ltd, and HORIBA® LA-950 by Horiba Instruments, Inc., Irvine Calif. For laser diffraction spectroscopy, particle size distribution is generally described by D values, such as D90. In aspects, the laser diffraction spectroscopy can be analyzed by the Fraunhofer theory. In aspects, the laser diffraction spectroscopy can be analyzed by the Mie scattering theory. In aspects, the laser diffraction spectroscopy can be analyzed by a combination of the Fraunhofer theory and the Mie scattering theory.\nParticle size measurements were obtained using water as dispersing media in the fraction cell of the laser diffraction particle size analyzer and analyzed using a refractive index of 1.60+0.01i in water.\nSamples at different time points were withdrawn and checked for particle size distribution by laser diffraction and appearance by optical microscopy."}, "[3]": {"experiment": "Assay and impurities of MBP dispersions, initial and on storage at 40° C./75% RH", "assay_type": "physicochemical", "settings": "initial (MBP) or API", "experimental": "Chemical Characterization of samples.\nStability Studies. All initial samples of the MBP were kept in closed 75 mL HDPE bottles and monitored at 40° C. and 75% relative humidity (RH) for up to 3 months. The physical state and chemical stability were reported by XRPD, and assay and impurity. […] The assay and impurity results from the MBP dispersions, stored at 40° C. and 75% relative humidity closed conditions for up to 3 months, and at 40° C. and 75% relative humidity open conditions for up to 2 weeks are reported in the Tables 9D and 9E below."}, "[4]": {"experiment": "Assay and related substances by HPLC of nanosuspensions, after milling and on storage", "assay_type": "physicochemical", "experimental": "Assay and Related Substance Testing. Formulations B, D, and E were tested for assay and related substances (RS) to detect the compatibility with the excipients. […] Assay/RS was not determined at TO for this study."}, "[5]": {"experiment": "Dissolution of un-milled vs nano-milled Formula (III) suspensions (sink and non-sink)", "assay_type": "physicochemical", "experimental": "Dissolution at non-sink conditions was tested to further compare un-milled and milled Formula (III) formulations."}, "[6]": {"experiment": "Chemical characterization (assay, impurities) of drug-layered beads and capsules, initial and at CRT/ACC storage", "assay_type": "physicochemical", "text": "The amount of the smaller size drug nanoparticles increased as the level of coating increased, with the smaller hump representing the particle size distribution of the drug nanoparticle suspension and the larger hum representing the particle size distribution of the sugar spheres, which largely remained unchanged throughout the process. […] The particle size distribution of the drug nanoparticles on sugar spheres was similar to that of the particle size distribution of drug nanoparticles in the film.\nThe assay was low, most likely due to the size of the batch (200 grams) since the minimum amount of drug suspension had to be used, which is smaller than the optimum size for the Vector FL1 fluid bed.\nThe capsules were stored and monitored at controlled room temperature (CRT, 25° C./60% RH) and accelerated conditions (ACC, 40° C./75% RH), and evaluated for chemical characterization up to 3 months, as shown in Table 15C and Table 15D, respectively."}, "[7]": {"experiment": "Assay (% LC) and impurities by HPLC of HME extrudates and tablets, initial and on storage", "source_text": "“Total impurities” refers to in the common pharmaceutical nomenclature as the total sum of all measured impurities and degradation products from the drug substance and is also referred to as total related substances. […] A gradient method was used with 0.1% (V/V) methanesulfonic acid in water as the first mobile phase and acetonitrile as the second. A C18 column with UV detection at 225 nm was used. Acetonitrile-water mixture was used for dilution of the samples.\nChemical stability. […] The impurity profile of the formulations was compared to the crystalline Formula (III) used in the HME extrudate (Table 2C).\nThermal degradation was closely monitored due to the high processing temperature. […] Selected major impurities in the extrudate that could be attributed to the processing condition were summarized based on the relative retention time (RRT) and shown in Table 2E.\nChemical Characterization of stability samples."}, "[8]": {"settings": "initial (formulation) or API as used, listed as API"}}, "note": "Where “and” joins values, the source holds several entries; their conditions need not be identical. Equal entries are not always repeated."}
{"smiles": "Cc1ccc(-c2nc(N)nc3c2nnn3Cc2cccc(COC3CCOC3)n2)o1", "note": "(stereo not shown) [Formula (III)]", "values": [{"measurement": "solubility at 240 min", "setting": "[1]; phosphate buffer with sodium lauryl sulphate, pH 6.8, aqueous with cosolvent or surfactant or cyclodextrin, 10 mM Phosphate buffer, pH 6.8, 0.5% SLS", "value": 419, "unit": "µg/mL"}, {"measurement": "solubility at 240 min", "setting": "[1]; phosphate buffer with sodium lauryl sulphate, pH 6.8, aqueous with cosolvent or surfactant or cyclodextrin, 10 mM Phosphate buffer, pH 6.8, 1.0% SLS", "value": 593, "unit": "µg/mL"}, {"measurement": "solubility at 240 min", "setting": "[1]; phosphate buffer with sodium lauryl sulphate, pH 6.8, aqueous with cosolvent or surfactant or cyclodextrin, 50 mM Phosphate buffer, pH 6.8, 0.5% SLS", "value": 386, "unit": "µg/mL"}, {"measurement": "solubility at 240 min", "setting": "[1]; phosphate buffer with sodium lauryl sulphate, pH 6.8, aqueous with cosolvent or surfactant or cyclodextrin, 50 mM Phosphate buffer, pH 6.8, 1.0% SLS", "value": 627, "unit": "µg/mL"}, {"measurement": "solubility at 240 min", "setting": "[1]; phosphate buffer, pH 6.8, aqueous buffer, 10 mM Phosphate buffer, pH 6.8, No Surfactant", "value": 23, "unit": "µg/mL"}, {"measurement": "solubility at 240 min", "setting": "[1]; phosphate buffer, pH 6.8, aqueous buffer, 50 mM Phosphate buffer, pH 6.8, No Surfactant", "value": 19, "unit": "µg/mL"}, {"measurement": "Particle Size Distribution D10", "setting": "[2]", "value": 73, "unit": "nm"}, {"measurement": "Particle Size Distribution D50", "setting": "[2]", "value": 169, "unit": "nm"}, {"measurement": "Particle Size Distribution D90", "setting": "[2]", "value": 714, "unit": "nm"}, {"measurement": "Total Impurity %", "setting": "[3]", "value": 0.82, "unit": "%"}, {"measurement": "Total Specified Impurity %", "setting": "[3]", "value": 0.46, "unit": "%"}, {"measurement": "Potency (Assay %)", "setting": "[4]; T = 0 (formulation) or API", "value": 100, "unit": "%"}, {"measurement": "% Impurity by RRT 0.80", "setting": "[4]; T = 0 or API", "value": 0.2, "unit": "%"}, {"measurement": "% Impurity by RRT 0.94", "setting": "[4]; T = 0 or API", "value": 0.2, "unit": "%"}, {"measurement": "% Impurity by RRT 10.6", "setting": "[4]; T = 0 or API", "value": 0.2, "unit": "%"}, {"measurement": "Total Impurity %", "setting": "[4]; T = 0 or API", "value": 0.6, "unit": "%"}, {"measurement": "Related substances (RS) of the standard", "setting": "[4]; standard, unmilled", "value": 0.6, "unit": "%"}, {"measurement": "Solubility dependence on pH", "setting": "[5]", "value": "increases significantly below pH 3"}, {"measurement": "Time to complete dissolution", "setting": "[5]; acid medium, sink condition", "value": 45, "unit": "min"}, {"measurement": "Solubility of a 100 mg dose in 900 mL phosphate buffer at pH 6.8", "setting": "[5]; non-sink condition", "value": "not fully soluble"}, {"measurement": "Total Impurities", "setting": "[6]; API", "value": 0.8, "unit": "%"}, {"measurement": "Total Impurities %", "setting": "[6]; initial chemical characterization of the beads (Table 14C)", "value": 0.80, "unit": "%"}, {"measurement": "Total Impurities", "setting": "[7]; initial (Table 8E)", "value": 0.8, "unit": "%"}, {"measurement": "Total Impurities %", "setting": "[7]; [8]", "value": "0.82% and 0.818% and 0.80%"}, {"measurement": "Total Specified Impurities %", "setting": "[7]; [8]", "value": "0.46% and 0.462%"}]}
